This is an account of results in patent US9169223B2, “Functionalised antifouling compounds and use thereof” (Agency for Science, Technology and Research, priority 2010, dated 2015).

In brackets after ≈: the same amount, converted by molar mass.

The nature of data set [1]: Observation on standing (note in characterisation). It is filed as physicochemical. The note with it: HRMS consistent with free alcohol. On the procedure: To a round bottomed flask containing DMAP (2 mg) was added a solution of 2-(4-hydroxymethyl)phenyl-1-(piperidin-1-yl)hexanone (30 mg, 0.10 mmol) in dry dichloromethane (2 mL). To the resulting mixture was added dry NEt3 (208 μL, 1.5 mmol) followed by acetic anhydride (100 μL, 1.0 mmol). The resulting mixture was allowed to stir for 3 hours. After this time, the reaction mixture was washed with saturated NaHCO3, water and then brine and the organic phase was dried (Na2SO4) and concentrated under reduced pressure. The title compound was obtained as a colourless oil (20 mg, 60%) following purification by flash column chromatography (50% EtOAc in hexane, Rf=0.7). ^1H NMR (400 MHz, CDCl3) δ 0.86 (t, J=7 Hz, 3H); 1.0-1.2 (2×m, 2H); 1.2-1.5 (multiple signals, 8H); 1.68 (m, 1H); 4.53 (m+s, 4H); 3.33 (m, 1H), 3.39 (m, 1H); 3.49 (m, 1H); 3.60 (m, 1H); 3.70 (t, J=7 Hz, 1H); 5.07 (s, 2H); 7.72 (m, 4H). ^13C NMR (75 MHz, CDCl3) δ14.01, 21.08, 22.72, 24.57, 25.60, 26.20, 30.09, 34.77, 43.20, 46.66, 48.38, 66.07, 128.03, 128.58, 134.24, 141.02, 171.09, 171.17.
To a round bottomed flask containing DMAP (2 mg) was added a solution of 2-(4-hydroxymethyl)phenyl-1-(piperidin-1-yl)hexanone (30 mg, 0.10 mmol) in dry CH2Cl2 (2 mL). To the resulting mixture was added dry NEt3 ([…], 1.5 mmol) followed by acetic anhydride (100 μL, 1.0 mmol). The resulting mixture was allowed to stir for 3 hours. […]

The next data set deals with barnacle cyprids. Briefly: Settlement assay with barnacle cyprids. The format is in vivo, Amphibalanus amphitrite. The procedure: Biological assays were conducted with larval barnacles. Barnacles are dominant and tenacious members of marine fouling communities, and often serve as a substrate for less resistant organisms. Therefore, historically they have been used as a model organism for antifouling studies. To determine the biological response of larvae to test compounds, two bioassays were performed: settlement (using settlement stage cyprids), and toxicity (using nauplii).
(§1) Stock solutions of each compound were made at 50 mg/ml. Pure compounds were diluted in DMSO and sonicated. Stock solutions were stored at −20° C. in 4 ml amber screw cap vials until use. For bioassays, a small amount of stock solution was diluted in 1 μm filtered seawater (in a glass scintillation vial). The solution was then sonicated for 10 minutes. To obtain the desired concentration range, serial dilutions of the test solution were made. As control, a serial dilution of the equivalent amounts of DMSO in seawater was used.
Nauplii were cultured as described above, and then reared at 25° C. on an algal mixture of 1:1 v/v of Tetraselmis suecica and Chaetoceros muelleri (approximately density 5×10^5 cells per ml). Under these conditions, nauplii typically metamorphose to cyprids in 5 days. Cyprids were aged at 4° C. for 2 days.
Settlement assays were conducted in 7 ml neutral glass vials (Samco® T103/V1; 34×23 mm diameter). For assays, each solution was made at twice the desired final concentration; 0.5 ml of this solution was transferred to vials. To each vial, cyprids were added by transferring 0.5 ml filtered seawater containing 20-40 aged cyprids. As in toxicity assays: each compound at each concentration was run in triplicate with cyprids from a single batch; two controls (filtered seawater and DMSO) were run along with each assays; and the overall assay was conducted twice, using two different batches of cyprids.
Assays were conducted for 24 hours, after which time the number of settled cyprids, the number of free swimming (unsettled) cyprids, and the number of dead cyprids were counted for each vial. Both metamorphosed, juvenile barnacles and cyprids that had committed to settlement (glued themselves to the vial), but had not yet metamorphosed, were counted as ‘settled’. Data was expressed as percent settlement. […] If ED50 could not be calculated using probit analysis, values were extrapolated based on plotted data.

The subject of data set [2] is stage II naupliar larvae of the barnacle Amphibalanus amphitrite. Nature of the data set: Toxicity assay with barnacle nauplii. The format is in vivo. As to conditions: Amphibalanus amphitrite (barnacle), stage II naupliar larvae, in vivo. The procedure: Biological assays were conducted with larval barnacles. Barnacles are dominant and tenacious members of marine fouling communities, and often serve as a substrate for less resistant organisms. Therefore, historically they have been used as a model organism for antifouling studies. To determine the biological response of larvae to test compounds, two bioassays were performed: settlement (using settlement stage cyprids), and toxicity (using nauplii). Procedures followed methods standard in the field, which were first described by Rittschof et al. (1992).
as §1
Toxicity assays employed stage II naupliar larvae of the barnacle Amphibalanus amphitrite (previously Balanus amphitrite: Pitombo, 2004). Assay procedures were modified from Rittschof et al. (1992). Adult A. amphitrite were collected from inter-tidal areas near the Kranji mangrove, Singapore. Larval culture was based on Rittschof et al. (1984). Following collection, nauplii were concentrated for use in bioassays by placing a fiber optic light source at one side of the container, and pipetting from the resulting dense cloud of nauplii.
In order to determine LD50 values for each compound, compounds were tested over a range of concentrations between 0-50 μg/ml. For each assay, each compound at each concentration was tested in triplicate with a single batch of nauplii. The overall assay was conducted twice, using two different batches of nauplii. Two controls were run along with each assay (in triplicate): filtered seawater only, and DMSO at […] (since DMSO was used as a solvent for test compounds, this concentration is equivalent to the concentration of DMSO in the highest test compound concentration).
For assays, approximately 20 nauplii (in 50 μl filtered seawater) were added to 1 ml test solution or control, in a 2 ml glass vial (La Pha Pack® PN 11-14-0544). Assays were run for 22-24 hours at 25-27° C. After this time, living and dead nauplii were counted using a Bogorov tray. Nauplii that were approaching death were scored as dead. Data for all assays was combined and LD50 was calculated (where possible) using a probit analysis (Libermann, 1983). If LD50 could not be calculated using probit analysis, values were extrapolated based on plotted data.

`CCCCC(C(=O)N1CCCCC1)c1ccc(COC(C)=O)cc1` (stereo not shown) [Compound 16.3, 2-(4-acetoxymethyl)phenyl-1-(piperidin-1-yl)hexanone]: in data set [1], the stability on standing entry is “hydrolyses on standing”. For the same molecule, the IC50 in the data set on barnacle cyprids (Amphibalanus amphitrite, 24 h, anti-settlement, barnacle cyprids, 24 hours, concentration causing 50% reduction in settlement vs controls, read-out: ED50 (the source's name)) turned out to be 6.35 µg/mL (≈ 19.2 µM). Besides, the “TR (LD50/ED50)” value with barnacle cyprids (therapeutic ratio, LD50 (nauplii) / ED50 (cyprids)) is given as greater than 7.87. This molecule registered an LD50 in data set [2] greater than 50 µg/mL.
